The source of these data is patent US10363239B2, “Method for inhibiting growth of cancer cells” (Pain Therapeutics, Inc., priority 2013, dated 2019).

What all share (type): cell-based, human
The test system of assay [1] is melanoma cells. The assay can be described thus: [3H]thymidine incorporation. Particulars: 0.1-5 nM; 96 hours. On the procedure:
(§1) The effect of Compound C0105 on cell proliferation was determined by the level of [^3H]thymidine incorporation in glioblastoma, melanoma and small-cell lung carcinoma cells. Cells contacted with vehicle or 0.1-5 nM Compound C0105 were incubated with 5 μCi/ml of [^3H]thymidine for 96-hours. Cells were washed and the cell content of [^3H]thymidine was quantified using scintillation spectrometry. […] N=4. **p<0.05, *p<0.01 compared to vehicle (open bars).

Assay [2] deals with glioblastoma cells. The assay can be described thus: [3H]thymidine incorporation. Particulars: 0.1-5 nM; 96 hours. The method, then:
as §1
For orientation: Dividing cells build labelled thymidine or BrdU into new DNA.

Assay [3] has as its system small-cell lung carcinoma cells. Put plainly: [3H]thymidine incorporation. Particulars: 0.1-5 nM; 96 hours. On the procedure:
as §1

In assay [4] the test system is pS2448mTOR, pS473Akt, pY/pT-ERK2 in primary lung fibroblast cells. Put plainly: Activated (phosphorylated) mTOR, Akt and ERK2 levels (immunoprecipitation, Western blotting). Particulars: 0.1-5 nM; 4 days. The method, then: (§2) Cells were treated with vehicle and 0.1-5 nM C0105 for 4 days. Cells were washed, solubilized and the resultant cell lysate was immunoprecipitated with anti-mTOR, -Akt or -ERK2. The levels of pS^2448mTOR, pS^473Akt, pY/pTERK2 in the respective anti-mTOR, -Akt, and -ERK2 immunoprecipitates were determined by Western blotting. […] The density of protein bands was measured by densitometric scanning. […] N=4. *p<0.01 compared to vehicle (open bars). […]
(§3) The cell lysates were diluted 5-fold with immunoprecipitation buffer and immunoprecipitated with anti-FLNA, -Akt, -mTOR and -ERK2 as described previously [Talbot et al., J Clin Inv 122(4):1-23 (2012); Wang et al., J Neurosci 32(29):9773-9784 (2012)]. The levels of FLNA linkages, activated phosphorylated Akt (pS^473 and pT^308), phosphorylated mTOR (pS^2448) and phosphorylated ERK2 (pY/pT) were determined in anti-FLNA, -Akt, -mTOR and -ERK2 immunoprecipitates by Western blotting with appropriate antibodies directed against PTEN, PP2A, K-RAS, ras-GAP (FLNA linkages), pS^473Akt, pT^308Akt, pS^2448mTOR and pY/pT ERK2 (activation of Akt, mTOR and ERK2).
For orientation: Immunoblotting shows a protein as a band on a membrane.

In assay [5] the test system is pS2448mTOR, pS473Akt, pY/pT-ERK2 in small-cell lung carcinoma cells. The description is as above. Particulars: 0.1-5 nM; 4 days. On the procedure:
as §2, §3

Assay [6] concerns melanoma cells. Put plainly: Glucose deprivation-induced cell death (cell density). Particulars: 0.1 or 1 nM; up to 4 days. The method, then: (§4) The effect of Compound C0105 on cell death induced by glucose withdrawal was assessed in glioblastoma and melanoma cells. Cells were grown to >90% confluence, washed and incubated in 0.1% fetal bovine serum (FBS) for 16 hours and incubated in glucose-free 0.1% FBS-containing medium without or with 0.1 or 1 nM C0105 for up to 4 days. Cell density was assessed at the indicated time point. Data are expressed as mean±S.E.M. of percentage change in cell density compared to cells grown in glucose- and 0.1% FBS-containing medium. […] N=5-6.
(§5) In a separate series of studies, the effect of Compound C0105 on glucose dependence was assessed by changes in cell density. The cancer and primary normal cells were grown to >90% confluency. The cells were washed with PBS, incubated in 0.1% fetal bovine serum (FBS) for 16 hours and incubated in glucose-free 0.1% FBS-containing medium for up to 4 days in the presence of vehicle or 1 nM Compound C0105.

Assay [7] concerns glioblastoma cells. Described as above. Particulars: 0.1 or 1 nM; up to 4 days. The method, then:
as §4, §5

Assay [8] relates to small-cell lung carcinoma cells. The assay can be described thus: Glucose deprivation-induced apoptosis markers (cleaved PARP-1, caspase-3) by Western blotting. Particulars: 1 nM; Day 3 and 4. The method, then: . Cells were washed, solubilized and the levels of apoptotic markers PARP-1 and caspase-3 (19- and 17-KDa) in the obtained cell lysates were determined by Western blotting. The density of protein bands was quantified by densitometric scanning. […] . […] N=5. *p<0.01 compared to Day 0. #p<0.01 compared to vehicle (open bars).
. The cells were washed with PBS, incubated in 0.1% fetal bovine serum (FBS) for 16 hours and incubated in glucose-free 0.1% FBS-containing medium for up to 4 days in the presence of vehicle or 1 nM Compound C0105. The cells in the entire well were collected by centrifugation. […] The protein concentrations were measured by the Bradford method.
The cells were homogenized and the obtained homogenates were centrifuged to remove nucleus and mitochondria. […] The level of apoptotic cell death was determined using Western blotting in 50 μg solubilized cell lysates with antibodies against cleaved PARP-1 (Asp^214) and caspase-3 (Asp^175), both at 1:1000 dilution. […] Bands at the relevant molecular masses of Ki67 and PCNA were quantified by densitometric scan. Membranes were stripped, washed 5× in 0.1% PBST (2 minutes each wash) and the actin content analyzed by immunoblotting using monoclonal anti-actin to illustrate even loading.

Assay [9] relates to pS2152FLNA, FLNA-associated PTEN and PP2A in primary lung fibroblast cells. The assay can be described thus: pS2152FLNA and FLNA-associated PTEN and PP2A in anti-FLNA immunoprecipitate (Western blotting). Particulars: 0.1-5 nM; 4 days. The method, then:
The effect of contact with Compound C0105 on the levels of pS^2152FLNA and FLNA-associated phosphatases, PTEN and PP2A subclasses was determined in primary lung fibroblast cells. Cells were treated with vehicle and 0.1-5 nM Compound C0105 for 4 days. Cells were washed, solubilized and the resultant cell lysate was immunoprecipitated with anti-FLNA. The levels of pS^2152FLNA and FLNA-associated phosphatases, PTEN and PP2A subclasses in the anti-FLNA immunoprecipitate were determined by Western blotting. The density of protein bands was measured by densitometric scanning. […] N=4. **p<0.05, *p<0.01 compared to vehicle (open bars). […]
as §3

Take `CN1CCC2(CC1)NCC(=O)N2Cc1ccccc1` [Compound C0105]: the “Cell proliferation by [3H]thymidine incorporation” value in the assay with melanoma cells [1] is “reduces glioblastoma, melanoma and small-cell lung carcinoma cell proliferation”; in the assay on glioblastoma cells [2], “reduces glioblastoma, melanoma and small-cell lung carcinoma cell proliferation”; in [3] it was “reduces glioblastoma, melanoma and small-cell lung carcinoma cell proliferation”. In addition, the “mTOR, Akt and ERK activation (phosphorylated mTOR, Akt and ERK)” value in assay [4] is “little effect on mTOR, Akt and ERK activation”; in [5] it was “robustly reduces mTOR, Akt and ERK activation”. For the same compound, the “Cell death during glucose withdrawal” value in the assay with melanoma cells [6] and in the assay with glioblastoma cells [7] was “reduced the amount of cell death” in each case. For the same compound, the “Glucose deprivation-induced cell death by cleaved PARP-1 and caspase-3” value in assay [8] is “reduces glucose deprivation-induced cell death”. Also, in assay [9], the “FLNA-associated PTEN and PP2A levels” value was “does not affect”. Also, in assay [9], the pS2152FLNA level result is “does not affect”.
